Assay results from patent US20070275953A1 (priority 2003, published 2007).
Read-outs that look alike come from different tables or passages of the source.

How the values were obtained:
Assay type in all cases: cell-based
[1] = tested on: HIV-1 mutant Cys188RT in P4 cells; assay: Anti-HIV assay on P4 cells, Cys188RT mutant
From the text: (§1) In order to introduce mutation(s) at the level of the pol gene coding for the RT in the pNL4-3 plasmid containing the complete viral genome (Adachi et al., 1986. J. Virol., Vol. 59 p 284-291) we used the “Quick change mutagenesis kit” (Stratagene). The following mutations were separately introduced in pNL4-3: L100I, K103N, V108I, Y181C, Y188C, and the double mutations K103N/V108I. These mutations were chosen because of the resistance that they confer to existing NNRTI. The production procedure of the mutant viral stocks is identical to the one described above.
(§2) Anti-HIV activity and cytotoxicity of the compounds were tested on a P4 cell line. The P4 cell line (Clavel & Charneau, 1994. J. Virol., Vol. 68 p 1179-1185) was provided by Dr. François Clavel (Unité de recherche antivirale de l'hôpital Xavier Bichat Paris: Inserm). The P4 cells were cultured in complete DMEM medium supplemented with 10% fetal bovine serum (FBS), 0.5% of Penicillin/Streptomycin and G418 at 0.5 mg/ml. Exponentially growing cells were trypsinized, centrifuged and split twice weekly at 5.10^4 cells/ml.
The P4 cells are HIV-infectible Hela-CD4 cells that carry the bacterial lacZ gene under the control of the HIV-1 long terminal repeat (LTR). In this cell line, transcription of the LacZ gene is driven by the HIV-1 LTR. As such, the cytoplasmic accumulation of β-galactosidase is strictly dependent on the presence of the HIV transactivator Tat produced during the intracellular viral replication (Clavel & Charneau, 1994. J. Virol., Vol. 68, p. 1179-1185). In other words, in this system, the expression level of the β-galactosidase gene is proportional to the viral replication.
Briefly, in the anti-HIV assay 100 Ål of P4 cells were plated in 96-well plate at a concentration of 0.4 10^5 cells/ml and incubated at 37° C., 5% CO2. After 48 h, the medium was removed and 100 Ål of the different drugs dilutions were added to the cells. Four hours after the addition of the drugs all cells were infected with equal amount of cell-free virus, corresponding to 100 ng of HIV p24 antigen. After 48 h of incubation at 37° C., 5% CO2, β-galactosidase activity was measured using chlorophenol red-β-D-galactopyranoside assays.
The absorbance was measured on a Benchmark™ Microplate Reader (Biorad) (λ=570 nm) and compared with 12 cell control replicates (no virus or drug added) and 12 virus control wells (no drug added). Each assay was performed a minimum of three times. The 50% effective concentration (Ec50) was calculated from each dose response curve using the CurveExpert 1.3 software. As Nevirapine activity corresponds to its published values (10-100 nM), the data are consistent with other measures of viral replication.

[2] = tested on: HIV-1 mutant Ile108RT in TZM-bl cells; assay: Anti-HIV assay on TZM-bl cells, Ile108RT mutant; conditions: read-out: EC50 Ile108RT TZM-bl
From the text: as §1
(§3) Anti-HIV activity and cytotoxicity of the compounds were tested on the TZM-b1 cell line. The TZM-b1 cell line (Wei et al. 2002. Antimicrob. Agents Chemother. Vol. 46, p 1896-1905) was received from the NIH AIDS Research and Reference Reagent Program. These cells were cultured in complete DMEM medium supplemented with 10% fetal bovine serum (FBS), and 1% Penicillin/Streptomycin. Exponentially growing cells were trypsinized, centrifuged and split twice weekly at 5 10^4 cells/ml.
(§4) The anti-HIV assay with TZM-b1 cells is essentially the same as described above with P4 cells. The main difference between the two cell lines is that the TZM-b1 cells express at their surface both the CD4 and CCR5 proteins, acting as receptor and co-receptor for HIV entry, respectively (Wei et al. 2002. Antimicrob. Agents Chemother. Vol. 46, p 1896-1905). This feature makes the cells very sensitive to infection by the virus. The TMZ-b1 cells were infected with equal amount of cell-free virus, corresponding to 10 ng of HIV p24 antigen. This amount is ten times lower than the amount used to infect the P4 cells.

[3] = tested on: HIV-1 mutant Cys181RT in MT4 cells; assay: Anti-HIV assay on MT4 cells, Cys181RT mutant
From the text: as §1
(§5) Anti-HIV activity of the compounds was tested on MT-4 cell line. The MT-4 cell line (Larder et al. 1989. Sciences, Vol. 243 p 1731) was received from the NIH AIDS Research and Reference Reagent Program. These cells were cultured in RPMI medium supplemented with 10% fetal bovine serum (FBS), and 1% Penicillin/Streptomycin. The cultures were split regularly to keep cells densities between 0.3 to 1.2 10^6 cells/ml.
(§6) The MT-4 cells rapidly die upon infection by HIV. In this system there is an inverse correlation between cells survival and the amount of viral replication.
(§7) Briefly, in the anti-HIV assay exponentially growing MT-4 cells were infected with HIV-1. 100 μl of infected MT-4 cells were seeded in 96-well plate at a concentration of 0.4 10^5 cells/ml, and 100 μl of the different drugs dilutions were added to the cells. After 4 days of incubation at 37° C., 5% CO2, cells survival was measured using MTS (3-(4-5-dimethylthiazol-2-yl)-5-(−(3-carboxymethoxyphenyl)-2-(4-sulfophenyl)-2H-tetrazolium) assays. This compound is reduced by viable cells in a colored soluble formazan salt.
(§8) The absorbance was measured on a Benchmark™ Microplate Reader (Biorad) (λ=490 nm) and compared with 12 cell control replicates (nor virus nor drug added) and 12 virus control wells (no drug added). Each assay was performed a minimum of three times. The 50% effective concentration (EC50) was calculated from each dose response curve using the CurveExpert 1.3 software.

[4] = tested on: HIV-1 mutant Asn103RT in TZM-bl cells; assay: Anti-HIV assay on TZM-bl cells, Asn103RT mutant; conditions: read-out: EC50 Asn103RT TZM-bl
From the text: as §1, §3, §4

[5] = tested on: HIV-1 mutant Asn103RT in MT4 cells; assay: Anti-HIV assay on MT4 cells, Asn103RT mutant
From the text: as §1, §5, §6, §7, §8

[6] = tested on: HIV-1 mutant Ile108RT in MT4 cells; assay: Anti-HIV assay on MT4 cells, Ile108RT mutant
From the text: as §1, §5, §6, §7, §8

[7] = tested on: HIV-1 mutant Asn103/Ile108RT in MT4 cells; assay: Anti-HIV assay on MT4 cells, Asn103/Ile108RT double mutant
From the text: as §1, §5, §6, §7, §8

[8] = tested on: HIV-1 mutant Asn103RT in P4 cells; assay: Anti-HIV assay on P4 cells, Asn103RT mutant
From the text: as §1, §2
The P4 cells are HIV-infectible Hela-CD4 cells that carry the bacterial lacZ gene under the control of the HIV-1 long terminal repeat (LTR). In this cell line, transcription of the LacZ gene is driven by the HIV-1 LTR. […]
Briefly, in the anti-HIV assay 100 Ål of P4 cells were plated in 96-well plate at a concentration of 0.4 10^5 cells/ml and incubated at 37° C., 5% CO2. […] After 48 h of incubation at 37° C., 5% CO2, β-galactosidase activity was measured using chlorophenol red-β-D-galactopyranoside assays.
The absorbance was measured on a Benchmark™ Microplate Reader (Biorad) (λ=570 nm) and compared with 12 cell control replicates (no virus or drug added) and 12 virus control wells (no drug added). […] The 50% effective concentration (Ec50) was calculated from each dose response curve using the CurveExpert 1.3 software. […]

[9] = P4, mutant Cys188RT, read-out: EC50 Cys188RT P4
[10] = Human immunodeficiency virus 1, read-out: EC50 Cys188RT P4
[11] = Human immunodeficiency virus 1, MT4, read-out: EC50 Cys181RT MT4
[12] = Human immunodeficiency virus 1, TZM-bl
[13] = Human immunodeficiency virus 1, MT4, read-out: EC50 Asn103RT MT4
[14] = Human immunodeficiency virus 1, MT4, read-out: EC50 Ile108RT MT4
[15] = Human immunodeficiency virus 1, MT4, read-out: EC50 Asn103/Ile108RT MT4
[16] = Human immunodeficiency virus 1, read-out: EC50 Asn103RT P4
[17] = MT4, double mutant Asn103/Ile108RT
[18] = MT4, mutant Ile108RT, read-out: EC50 Ile108RT MT4

| SMILES | EC50 [1, 9] | EC50 ([2]; TZM-bl, mutant Ile108RT) | EC50 [1, 10] | EC50 [3, 11] | EC50 [4, 12] | EC50 [5, 13] | EC50 [2, 12] | EC50 [6, 14] | EC50 [7, 15] | EC50 ([4]; TZM-bl, mutant Asn103RT) | further results |
| --- | --- | --- | --- | --- | --- | --- | --- | --- | --- | --- | --- |
| CCOC(=O)c1c(OC2CC(C)CC(C)C2)c(CC)c(C)[nH]c1=O (single isomer, unassigned) [Z37inv] | 10 nM | 1090 nM | – | – | – | – | – | – | – | – | – |
| O=C1Nc2ccc(Cl)cc2[C@@](C#CC2CC2)(C(F)(F)F)O1 [Efavirenz, reference compound] | – | – | < 1 nM | < 1 nM | 35 nM | 5 nM | < 6 nM | < 1 nM | 1190 nM | – | – |
| Cc1ccnc2c1NC(=O)c1cccnc1N2C1CC1 [Nevirapine, reference compound] | – | – | 1640 nM | – | 2100 nM | > 25000 nM | 91 nM | 1270 nM | – | – | EC50 Cys181RT MT4 ([3]; MT4, mutant Cys181RT): Inactive; EC50 [8, 16]: 1710 nM; EC50 Asn103/Ile108RT MT4 [7, 17]: inactive |
| CCc1c(C)[nH]c(=O)c(CO)c1OC1CC(C)CC(C)C1 (stereo not drawn) [Z45inv] | 8 nM | – | – | – | – | – | – | – | – | – | – |
| CCc1c(C)[nH]c(=O)c([N+](=O)[O-])c1OC1CC(C)CC(C)C1 (stereo not drawn) [Z91inv, 3-nitro-5-ethyl-6-methyl-4-[(3,5-dimethylcyclohexyl)oxy]pyridine-2(1H)-one] | – | – | < 1 nM | 2440 nM | 355 nM | 980 nM | < 1 nM | 72 nM | 9900 nM | – | EC50 [8, 16]: 89 nM |
| CCc1c(C)[nH]c(=O)c(CSC(C)=O)c1OC1CC(C)CC(C)C1 (stereo not drawn) [Z114] | 3 nM | 12 nM | – | – | – | – | – | – | – | 584 nM | EC50 Cys181RT MT4 ([3]; MT4, mutant Cys181RT): Inactive; EC50 ([8]; P4, mutant Asn103RT, read-out: EC50 Asn103RT P4): 643 nM; EC50 Asn103RT MT4 ([5]; MT4, mutant Asn103RT): inactive; EC50 [6, 18]: 12000 nM; EC50 Asn103/Ile108RT MT4 [7, 17]: inactive |
| CCc1c(C)[nH]c(=O)c(N(C)C)c1OC1CC(C)CC(C)C1 (stereo not drawn) [Z150, 3-(dimethylamino)-5-ethyl-6-methyl-4-[(3,5-dimethylcyclohexyl)oxy]pyridine-2(1H)-one] | – | – | < 1 nM | 320 nM | 11 nM | < 1 nM | 4 nM | < 1 nM | 958 nM | – | – |
| CCc1c(C)[nH]c(=O)c(CN=[N+]=[N-])c1OC1CC(C)CC(C)C1 (stereo not drawn) [Z153] | < 1 nM | 1 nM | – | – | – | – | – | – | – | 42 nM | EC50 ([3]; MT4, mutant Cys181RT, read-out: EC50 Cys181RT MT4): 780 nM; EC50 ([5]; MT4, mutant Asn103RT, read-out: EC50 Asn103RT MT4): 150 nM; EC50 [6, 18]: 8 nM; EC50 ([7]; MT4, double mutant Asn103/Ile108RT, read-out: EC50 Asn103/Ile108RT MT4): 3480 nM |
| CCc1c(C)[nH]c(=O)c(C)c1OC1CC(C)CC(C)C1 (stereo not drawn) [Z154] | < 1 nM | 14 nM | – | – | – | – | – | – | – | 29 nM | – |
